Experimental data as given in patent US20130109698A1, “Small Molecule Inhibitors of Functions of the HIV-1 Matrix Protein” (priority 2010, published 2013).
pIC50: −log10 of the molar value.

How the values were obtained:
HIV-1 IIIB = experiment: Infection of Sup-T1 cells by HIV-1 IIIB, p24 ELISA; settings: 50 μM, three days
[1] = test system: luciferase-reporter HIV-1 NL4-3 pseudotyped with HxBc2 envelope produced in 293T cells; experiment: microbe, parasite or virus in culture

SMILES | HIV-1 replication (p24), in words (HIV-1 IIIB) | pIC50 [1]
COc1ccc(NC(C)=O)cc1NC(=O)Cn1cnc2scc(-c3ccc(C)s3)c2c1=O [CMPD-10, N-(5-acetamido-2-methoxyphenyl)-2-(5-(5-methylthiophen-2-yl)-4-oxothieno[2,3-d]pyrimidin-3(4H)-yl)acetamide] | inhibited HIV-1 replication, albeit to a lesser extent | 4.51
O=C(NCc1ccc(CN2CCCC2)cc1)c1ccc(C2SCCCS2)cc1 [CMPD-19, 4-(1,3-dithian-2-yl)-N-(4-(pyrrolidin-1-ylmethyl)benzyl)benzamide] | inhibited | 4.59
O=C1NC(c2ccccc2)(c2ccccc2)C(=O)N1CN1CCC(c2nc3ccccc3o2)CC1 [CMPD-13, 3-((4-(benzo[d]oxazol-2-yl)piperidin-1-yl)methyl)-5,5-diphenylimidazolidine-2,4-dione] | no effect | 
